Experimental findings from patent US20030143713A1, “Novel glycosidase inhibitors and their pharmacological uses, in particular for treating diabetes” (priority 1999, published 2003) are described below.

This assay has as its target T1, isoenzyme 1 of barley α-amylase (AMY1) (Hordeum vulgare, UniProt P00693).
T1 construct: made in house; host or cells: Pichia pastoris
Description: X-ray crystal structure of the AMY1/spermidine complex (cocrystallisation with spermidine, then soaking in acarbose). Type of assay: binding. The procedure:
The 9 C-terminal residues of recombinant isoenzyme 1 of barley α-amylase (AMY1) were cleaved in order to obtain a C-terminal end of the same length as that of isoenzyme 2 (AMY2). The protein was then over-expressed in Pischia pastoris, purified and concentrated.
The protein preparation used for crystallisation has a concentration of 5.1 mg/ml and is in a solution of 10 mM MES (2-[N]-Morpholino ethane sulphonic acid), 100 mM CaCl2, 0.02% NaN3, pH 6.7.
The crystals were obtained by cocrystallisation thanks to the vapour diffusion principle using the hanging droplet technique. To do this, 2.5 μl of polyethylene glycol 8000 at 21% as a precipitating agent and 0.5 μl of a 0.1M solution of spermidine as a crystallisation additive were added to 2 μl of the protein solution described previously. This droplet was equilibrated at 19° C. against a reservoir containing 500 μl of polyethylene glycol 8000 at 21%.
The crystals were then immersed for 20 hours in a polyethylene glycol 8000 solution at 21% containing 10 mM of acarbose (a pseudo-tetrasaccharide).
Collection of the diffraction data was carried out using an X-ray generator (CuKα radiation—wavelength 1.5418 Å) with a rotating anode (Nonius 581) operating at 40 kV and 90 mA (i.e. 3.6 kW) with a graphite monochromator coupled to a two-dimensional detector of Image Plate type (MarResearch 345) of 34.5 cm in diameter.
A set of 180 diffraction exposures (each corresponding to 1° of oscillation of the crystal) was collected at 15° C., the crystal being capillary mounted and positioned at 120 mm from the detector, with an exposure time of the crystal to the X-rays of 500s per exposure. The highest resolution of this set of data is 2.44 Å.
We then determined the space group as being a P212121. The asymmetrical unit is composed of a molecule of the AMY1/spermidine complex, which corresponds to a volume of solvent in the lattice of 53%.
Subsequent processing of the data was carried out using the CCP4 suite of programs (CCP4, 1994).
The molecular replacement method was used thanks to the AmoRe software (Navaza, 1994) using the structure of isoenzyme 2 of barley α-amylase (AMY2-accession code PDB: 1AMY) (Kadziola et al., 1994 and Kadziola et al., 1998) as a guide model because of the significant sequence homology (80%) between this initial model and our protein of interest (AMY1). Refinement phases using molecular dynamic techniques (simulated annealing—Brünger et al., 1990) were carried out with CNS software version 0.9a (Brünger et al., 1998) alternating with model manipulations. […] In order to do this, 2Fo-Fc and Fo-Fc electronic density maps were calculated. […]

Where [1] appears, read: experimental AMY1/spermidine complex.

T1 sequence (P00693 25-429 limits assumed): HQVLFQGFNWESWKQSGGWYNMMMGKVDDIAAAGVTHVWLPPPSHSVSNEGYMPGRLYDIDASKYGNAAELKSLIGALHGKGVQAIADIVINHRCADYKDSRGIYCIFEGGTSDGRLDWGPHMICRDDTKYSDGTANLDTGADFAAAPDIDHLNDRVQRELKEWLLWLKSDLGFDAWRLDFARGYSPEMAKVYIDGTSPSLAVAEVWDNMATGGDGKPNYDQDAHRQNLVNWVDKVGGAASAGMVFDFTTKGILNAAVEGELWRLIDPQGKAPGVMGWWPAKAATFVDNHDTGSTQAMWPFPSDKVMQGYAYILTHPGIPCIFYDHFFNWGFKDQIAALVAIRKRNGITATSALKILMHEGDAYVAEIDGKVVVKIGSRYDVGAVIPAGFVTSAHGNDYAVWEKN

Regarding `NCCCCNCCCN` [spermidine], under setting [1], the “Direct hydrogen bonds with a residue” value amounted to 5 and the “Direct hydrogen bonds with a water molecule” value worked out at 4. In addition, the “total of H bonds stabilising the complex” value (experimental AMY1/spermidine structure) was determined as 9. Also, the “affinity for the enzyme compared with acarbose type inhibitors” value (in the presence of the two types of inhibitors (spermidine and acarbose)) is listed as “significantly greater affinity for the enzyme in comparison to the acarbose type inhibitors”.
